Test results: ChEMBL document CHEMBL1135376, “Synthesis of an immunoconjugate of camptothecin” (Bioorg Med Chem Lett, 2002)

Experiments:
[1] = Compound was evaluated for its stability and enzymatic cleavage of dipeptide linker at pH 7, 37 degree C.; 5-6 h; assay type: ADME
[2] = Compound was evaluated for its stability and enzymatic cleavage of dipeptide linker at pH5, 37 degree C.; 5-6 h; assay type: ADME; conditions: pH 5
[3] = Compound was evaluated for its stability and enzymatic cleavage of dipeptide linker at pH5, 37 degree C.; assay type: ADME; conditions: pH 5
L2987 = experiment: Compound was evaluated for antigen specific activity in vitro L2987 cell line; assay type: functional, cell-based; conditions: Homo sapiens

Compound	half-life [1]	half-life [2]	half-life [3]	IC50 (L2987)
CC[C@]1(OC(=O)OCc2ccc(NC(=O)[C@H](CCCCN)NC(=O)[C@H](Cc3ccccc3)NC(=O)CCCCCN3C(=O)CC(SCCO)C3=O)cc2)C(=O)OCc2c1cc1n(c2=O)Cc2cc3ccccc3nc2-1 (some centres undefined)	6 h	6 h	< 2 min	
CC[C@@]1(O)C(=O)OCc2c1cc1n(c2=O)Cc2cc3ccccc3nc2-1 [CAMPTOTHECIN]				400 nM
